Earlier results as cited in patent US20120003325A1, “USE OF HELIUM-OXYGEN GAS MIXTURES FOR TREATING PULMONARY ARTERIAL HYPERTENSION” (BAYER SCHERING PHARMA AKTIENGESELLSCHAFT, priority 2008, published 2012).

Settings: oil-water mixture

In the case of `[He]` [helium], the “solubility relative to the solubility of oxygen or nitrogen” value is given as 30%.
